The text below walks through data of ChEMBL document CHEMBL1201862, “PubChem BioAssay data set” (2004).

Where a name gives a salt, the structure may show the parent alone. Active and inactive are the calls of the source.

Test [1] can be described thus: IGROV1 ovarian cancer cell cytotoxicity, dose response, PAX8 inhibitor project, plate reader, dry powder samples (AID 743043). Type of test: functional, cell-based. As to conditions: IGROV-1.
The target of another test is Paired box protein Pax-8 (Homo sapiens, UniProt Q06710). Kind of test: inhibitors of PAX8-driven TPO luciferase reporter, dose response, RMG-I cells, cherry-pick (AID 687027).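 Note: luciferase reporter driven by Pax8 target thyroperoxidase promoter measured by SteadyGlo luminescence.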 Type of test: functional, cell-based.
Test [2] is described as follows: P. falciparum Dd2 growth inhibitors, dose response, SYBR Green, cherry-picked samples (AID 1159567). Type of test: functional, cell-based.
Test [3] can be described thus: NIH:OVCAR-3 ovarian cancer cell cytotoxicity, dose response, PAX8 inhibitor project, plate reader, dry powder samples (AID 743044). Type of test: functional, cell-based.
Test [4] is described as follows: HepG2 cell cytotoxicity, dose response, cytotoxicity control, cherry-picked samples (AID 1159577). Type of test: functional, cell-based.
The nature of test [5]: IOSE-T80 ovarian epithelial cell cytotoxicity, dose response, cytotoxicity control for PAX8 inhibitor project, plate reader, dry powder samples (AID 743045). It is filed as functional, cell-based.
Test [6] can be described thus: NIH-3T3 fibroblast cytotoxicity, dose response, cytotoxicity control, cell-based, fluorescence, Alamar Blue, secondary assay (AID 2327).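 Note: NIH-3T3 mouse fibroblasts cultured with fluconazole at 8 µg/mL.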 It is filed as functional. A general note: The colour change of resazurin is a common sign of viable cells or microbes.
Test [7] can be described thus: C. albicans growth with fluconazole, confirmation, fluorescence, retest (AID 2467). It is filed as functional, cell-based.
A further test deals with T1, fMet-Leu-Phe receptor (Homo sapiens, UniProt P21462).
T1 sequence (P21462 whole entry): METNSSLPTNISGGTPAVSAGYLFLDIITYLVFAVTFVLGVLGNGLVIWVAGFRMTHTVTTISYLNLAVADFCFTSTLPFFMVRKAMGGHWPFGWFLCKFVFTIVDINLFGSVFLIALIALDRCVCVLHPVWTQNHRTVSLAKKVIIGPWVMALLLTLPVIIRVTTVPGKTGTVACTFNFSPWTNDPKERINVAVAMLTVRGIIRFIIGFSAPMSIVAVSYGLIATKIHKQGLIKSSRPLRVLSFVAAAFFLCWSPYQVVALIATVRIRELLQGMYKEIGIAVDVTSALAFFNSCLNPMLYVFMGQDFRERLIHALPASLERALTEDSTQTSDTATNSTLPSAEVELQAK
The test can be described thus: FPR ligands, dose response (AID 519). It is filed as functional.

A short description of test [8]: LGR2 antagonists, dose response, cell-based, HEK293, CRE-luciferase reporter, cherry pick, set 2 (AID 743343).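 Note: transfected cells were stimulated with diluted bursicon conditioned medium after compound addition.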 It is filed as functional. In general terms: In a reporter assay the amount or activity of a reporter protein is the signal.
The nature of test [9]: HepG2 cell cytotoxicity, dose response, cytotoxicity control, plate reader, cherry-pick, antagonist series (AID 743416). Type of test: functional, cell-based.
Test [10] in a line: MC4R antagonists, dose response, counter-screen for LGR2 antagonist project, cell-based, plate reader, cherry pick (AID 743444).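 Note: transfected HEK 293 cells stimulated with alpha-MSH peptide; potency of inhibitors of the alpha-MSH evoked signal.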 Type of test: functional. In general terms: The purpose of a counterscreen is to sort out artefacts and off-target activity.
Test [11] can be described thus: HEK293 cell cytotoxicity, dose response, cytotoxicity control, plate reader, cherry-picked samples (AID 743446). It is filed as functional, cell-based.
Another test deals with HEK293. The test can be described thus: inhibitors of LMP1-driven NF-kB reporter, dose response, cell-based, HEK293, luciferase, cherry-pick (AID 588343). As to conditions: Homo sapiens. Type of test: functional.
Test [12] in a line: inhibitors of HIV Env-driven cell fusion, dose response, cherry-pick (AID 652057). It is filed as functional, cell-based.
Test [13] in a line: CEM21 lymphoblast cell cytotoxicity, dose response, cytotoxicity control for viral fusion inhibitor project, CellTiter-Glo luminescence, cherry-picked (AID 652042).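 Note: potency for signal decrease meaning cytotoxicity.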 Type of test: functional, cell-based.
Test [14] can be described thus: inhibitors of clade B AD8 Env fusion, dose response, cell-based, cherry-pick (AID 652062).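 Note: luciferase signal from cell-cell fusion driven by HIV-1 clade B AD8 Env; potency is for inhibitors of fusion seen as a drop in luminescence.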 It is filed as functional.
Test [15] is described as follows: ZM109 Env clade C HIV-1 fusion inhibitors, dose response, HeLa effector, CEM target cells, luciferase, cherry-pick (AID 652058). It is filed as functional, cell-based.
In test [16] the target is T2, Fructose-bisphosphate aldolase (Mycobacterium tuberculosis, UniProt P9WQA3).
T2 sequence (P9WQA3 whole entry): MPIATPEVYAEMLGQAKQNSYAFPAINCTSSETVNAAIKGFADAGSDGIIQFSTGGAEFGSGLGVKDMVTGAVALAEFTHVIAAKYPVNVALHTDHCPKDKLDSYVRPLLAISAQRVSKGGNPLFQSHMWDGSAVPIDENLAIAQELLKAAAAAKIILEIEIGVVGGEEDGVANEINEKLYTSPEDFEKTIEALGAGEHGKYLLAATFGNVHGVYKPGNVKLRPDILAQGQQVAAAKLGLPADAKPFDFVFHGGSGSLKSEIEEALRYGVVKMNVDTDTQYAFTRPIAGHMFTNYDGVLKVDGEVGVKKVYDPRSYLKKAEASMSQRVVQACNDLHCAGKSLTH
The test can be described thus: Fluorescence-based biochemical high throughput dose response assay for inhibitors of the fructose-bisphosphate aldolase (FBA) of M. tuberculosis. It is filed as functional.

The nature of test [17]: A549 cell cytotoxicity, dose response, cytotoxicity control, plate reader, cherry-pick, antagonist series (AID 743412). Type of test: functional, cell-based.
The nature of test [18]: Dose-response inhibition of insulin secretion in a rat insulinoma line at 5 mM glucose (AID 1117331). Type of test: functional, cell-based. As to conditions: INS-1E.
A short description of a further test: cells. Type of test: functional, cell-based. The following applies: INS-1E.
In a further test the target is T3, Cytochrome P450 1A2 (Homo sapiens, UniProt P05177).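 Note: PubChem cytochrome P450 panel assay, CYP1A2 panel member.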
T3 sequence (P05177 whole entry): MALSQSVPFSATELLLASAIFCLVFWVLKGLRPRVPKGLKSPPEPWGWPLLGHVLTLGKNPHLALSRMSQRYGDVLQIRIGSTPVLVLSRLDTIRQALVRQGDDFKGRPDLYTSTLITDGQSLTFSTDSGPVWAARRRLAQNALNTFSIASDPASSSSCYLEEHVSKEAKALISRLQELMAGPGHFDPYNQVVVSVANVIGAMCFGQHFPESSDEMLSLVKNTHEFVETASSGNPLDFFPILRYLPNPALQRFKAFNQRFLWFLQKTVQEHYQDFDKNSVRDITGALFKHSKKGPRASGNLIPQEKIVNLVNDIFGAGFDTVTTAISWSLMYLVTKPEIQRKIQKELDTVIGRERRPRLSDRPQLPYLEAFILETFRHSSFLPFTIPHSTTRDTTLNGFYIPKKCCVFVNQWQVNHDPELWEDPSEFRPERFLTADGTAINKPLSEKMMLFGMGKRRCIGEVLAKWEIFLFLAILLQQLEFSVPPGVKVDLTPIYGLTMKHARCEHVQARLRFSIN

Test [19] can be described thus: Counterscreen for activators of the function of SWI/SNF related, matrix associated, actin dependent regulator of chromatin, subfamily a, member 2 (SMARCA2, BRM): Luminescence-based cell-based high throughput dose response assay to identify non-selective compounds using the VP16 reporter assay. Type of test: functional.
Test [20] has as its target SWI/SNF-related matrix-associated actin-dependent regulator of chromatin subfamily A member 2 (Homo sapiens, UniProt P51531). The test can be described thus: Luminescence-based cell-based high throughput dose response assay to identify activators of the function of SWI/SNF related, matrix associated, actin dependent regulator of chromatin, subfamily a, member 2 (SMARCA2, BRM). Type of test: functional.

The target in test [21] is T4, RNA-editing ligase 1, mitochondrial (Trypanosoma brucei brucei, UniProt P86926).
T4 sequence (P86926 whole entry): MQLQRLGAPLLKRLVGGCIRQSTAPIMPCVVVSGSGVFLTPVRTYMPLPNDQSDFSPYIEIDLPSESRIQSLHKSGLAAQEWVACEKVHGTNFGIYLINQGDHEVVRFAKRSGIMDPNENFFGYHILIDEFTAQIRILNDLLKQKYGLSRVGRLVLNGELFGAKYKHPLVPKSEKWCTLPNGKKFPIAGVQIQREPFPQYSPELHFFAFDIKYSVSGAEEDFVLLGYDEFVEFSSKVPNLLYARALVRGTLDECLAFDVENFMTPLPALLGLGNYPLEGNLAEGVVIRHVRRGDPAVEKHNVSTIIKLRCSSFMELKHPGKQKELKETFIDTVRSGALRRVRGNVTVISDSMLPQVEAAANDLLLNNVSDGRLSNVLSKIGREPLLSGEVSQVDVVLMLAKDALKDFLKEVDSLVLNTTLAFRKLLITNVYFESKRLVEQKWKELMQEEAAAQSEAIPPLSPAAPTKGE
The test can be described thus: TbREL1 ligase inhibitors, dose response, biochemical, fluorescence, Trypanosoma brucei (AID 1117295). It is filed as functional.

Sequence of Paired box protein Pax-8 (Q06710 whole entry): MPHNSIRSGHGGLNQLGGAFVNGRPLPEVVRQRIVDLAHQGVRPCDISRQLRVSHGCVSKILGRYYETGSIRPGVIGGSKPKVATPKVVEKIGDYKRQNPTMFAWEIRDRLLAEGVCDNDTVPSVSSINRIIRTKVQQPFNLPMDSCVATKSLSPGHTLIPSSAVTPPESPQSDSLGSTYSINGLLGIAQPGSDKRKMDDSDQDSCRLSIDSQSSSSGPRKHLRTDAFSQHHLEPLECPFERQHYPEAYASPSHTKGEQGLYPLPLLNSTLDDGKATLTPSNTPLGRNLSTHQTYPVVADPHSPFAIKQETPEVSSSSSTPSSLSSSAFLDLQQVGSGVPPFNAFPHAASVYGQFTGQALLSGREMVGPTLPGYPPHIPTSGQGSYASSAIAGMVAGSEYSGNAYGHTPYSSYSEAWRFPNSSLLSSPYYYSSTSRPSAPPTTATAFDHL
Sequence of SWI/SNF-related matrix-associated actin-dependent regulator of chromatin subfamily A member 2 (P51531 whole entry): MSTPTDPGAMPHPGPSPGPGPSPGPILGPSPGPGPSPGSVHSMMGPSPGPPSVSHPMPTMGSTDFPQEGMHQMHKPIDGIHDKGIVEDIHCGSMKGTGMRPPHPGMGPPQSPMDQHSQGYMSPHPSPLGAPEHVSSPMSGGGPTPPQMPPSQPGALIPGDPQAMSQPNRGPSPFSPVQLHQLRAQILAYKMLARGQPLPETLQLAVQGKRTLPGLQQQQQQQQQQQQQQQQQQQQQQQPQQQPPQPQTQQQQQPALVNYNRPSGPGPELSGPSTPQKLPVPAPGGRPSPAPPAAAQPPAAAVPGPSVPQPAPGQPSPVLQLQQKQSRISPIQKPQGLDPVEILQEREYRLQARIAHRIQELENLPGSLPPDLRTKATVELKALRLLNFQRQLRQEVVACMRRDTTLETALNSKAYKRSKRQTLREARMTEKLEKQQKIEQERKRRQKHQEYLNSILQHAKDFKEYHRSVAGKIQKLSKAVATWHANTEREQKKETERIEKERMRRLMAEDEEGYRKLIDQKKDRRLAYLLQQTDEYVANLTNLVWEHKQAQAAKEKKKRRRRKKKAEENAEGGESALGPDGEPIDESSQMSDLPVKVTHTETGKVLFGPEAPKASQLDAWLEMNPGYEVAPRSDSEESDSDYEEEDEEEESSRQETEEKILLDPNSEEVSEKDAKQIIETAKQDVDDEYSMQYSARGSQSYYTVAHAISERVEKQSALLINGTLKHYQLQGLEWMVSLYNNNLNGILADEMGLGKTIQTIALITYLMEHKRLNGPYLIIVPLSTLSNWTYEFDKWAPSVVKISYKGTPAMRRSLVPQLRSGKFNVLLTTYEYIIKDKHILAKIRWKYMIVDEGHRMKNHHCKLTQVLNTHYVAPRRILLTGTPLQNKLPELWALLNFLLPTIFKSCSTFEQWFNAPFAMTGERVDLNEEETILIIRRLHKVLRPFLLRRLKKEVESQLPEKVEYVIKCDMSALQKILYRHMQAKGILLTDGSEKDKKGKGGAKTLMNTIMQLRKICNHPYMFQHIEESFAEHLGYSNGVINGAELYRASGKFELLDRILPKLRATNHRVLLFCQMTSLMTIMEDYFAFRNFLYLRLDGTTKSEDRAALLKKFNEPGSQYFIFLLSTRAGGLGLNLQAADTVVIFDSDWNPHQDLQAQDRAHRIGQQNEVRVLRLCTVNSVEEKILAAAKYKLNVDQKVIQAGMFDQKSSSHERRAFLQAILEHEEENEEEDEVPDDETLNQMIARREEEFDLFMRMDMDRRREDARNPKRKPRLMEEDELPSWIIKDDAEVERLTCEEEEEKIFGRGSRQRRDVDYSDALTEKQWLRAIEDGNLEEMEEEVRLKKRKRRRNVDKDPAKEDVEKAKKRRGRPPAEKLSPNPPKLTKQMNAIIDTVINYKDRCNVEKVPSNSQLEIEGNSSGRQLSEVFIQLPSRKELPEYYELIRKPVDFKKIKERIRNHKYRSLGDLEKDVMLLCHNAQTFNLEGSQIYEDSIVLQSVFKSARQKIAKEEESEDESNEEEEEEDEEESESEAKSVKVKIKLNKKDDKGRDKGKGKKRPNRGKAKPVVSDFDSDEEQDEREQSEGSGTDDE

As for `O=C(Nc1ccc(F)cc1)N1CCCCN2[C@@H](CO)[C@@H](c3ccc(C#Cc4ccccc4)cc3)[C@@H]2C1`, the half-maximal activity concentration (AC50) was 21 µM (active) in test [1]; 18.7 µM (active) on Paired box protein Pax-8; 2.61 µM (active) in [2]; 19.2 µM (active) in test [3]; 7.97 µM (active) in test [4]; 55.1 µM (active) in test [5].

For the molecule `COCCN1C(=O)C(O)=C(C(=O)c2ccco2)C1c1cccc(Oc2ccccc2)c1` (centres undefined), the EC50 in [6] was > 150 µM (inactive); in test [7], 4.35 µM (active). Also, the Ki at fMet-Leu-Phe receptor was 56 µM (inactive).

With `COc1ccc(-c2[nH]ncc2-c2ccc3c(c2)OCCO3)c(O)c1`, the AC50 is 2.97 µM (active) in test [8]; > 52 µM (inactive) in test [9]; 0.723 µM (active) in test [10]; > 52 µM (inactive) in [11]; 1.78 µM (active) in the test on HEK293.

With `COc1cccc(S(=O)(=O)N(C)C[C@H]2Oc3cc(C4=CCCC4)ccc3S(=O)(=O)N([C@@H](C)CO)C[C@H]2C)c1`, the AC50 in [12] was 1.87 µM (active); in test [13], 64.2 µM (active); in test [14], 3.01 µM (active); in test [15], 1.62 µM (active).

Turning to `COc1ccc(-n2ncc3c(N4CCC(C)CC4)ncnc32)cc1`, the AC50 in test [8] was 11.6 µM (active); in test [9] it was > 52 µM (inactive); in test [10] it was 19.3 µM (active); in [11], > 52 µM (inactive).

In the case of `COc1ccc2c(CN3CCCC3)cc(=O)oc2c1`, the half-inhibitory concentration (IC50) in test [16] is 2.52 µM (active).

`Cn1nnnc1Sc1ncnc2scc(-c3ccc([N+](=O)[O-])cc3)c12`: the half-maximal activity concentration (AC50) was 2.57 µM (active) on Paired box protein Pax-8; 6.25 µM (active) in test [8]; 6.71 µM (active) in test [17]; 7.05 µM (active) in [9]; 5.32 µM (active) in test [10]; 6.48 µM (active) in test [11].

On to `CN(C)CCN(Cc1ccc(Cl)cc1)c1ccccn1` [CHLOROPYRAMINE], for which the IC50 in [18] is 6.14 µM (inactive); in the test “cells”, 16.8 µM (inactive). Besides, the concentration at half-maximal activity (AC50) at Cytochrome P450 1A2 is 12.6 µM (inconclusive).

In the case of `COc1ccccc1/C=C/C(=O)OCC(=O)Nc1ccc(Cl)cn1`, the EC50 in [19] and in test [20] was > 91.1 µM (inactive) in each case.

As to `COC(=O)C1=C(C)N(Cc2ccc(C(F)(F)F)cc2)C(NCc2ccccc2C(F)(F)F)=NC1c1ccccc1C(F)(F)F` (centres undefined), in test [21], the IC50 is > 96.6 µM (inactive).

As to `CCCCN1CCCC[C@H]1C(=O)Nc1c(C)cccc1C` [LEVOBUPIVACAINE HYDROCHLORIDE], the IC50 in test [18] is 27.2 µM (inactive); in “cells”, > 33.3 µM (inactive).

Take `COCC(=O)N1CCC2(CC1)CN(Cc1ccccc1F)[C@H](CO)c1[nH]c3cc(OC)ccc3c12`: the AC50 in test [2] was 7.02 µM (active); in test [4] it was > 39 µM (inactive).

In general, AC50 refers to the concentration giving half of the maximal activity seen. What is called EC50 is the concentration giving half of the maximal effect. For orientation: Ki means a dissociation constant, usually derived from enzyme kinetics or from competition with a known ligand. The term IC50 denotes the midpoint of a concentration-inhibition curve.
